Read-outs that look alike come from different tables or passages of the source.
How the values were obtained:
Type in all cases: cell-based
DU-145 cells = experiment: Prostate cancer cell line growth inhibition assay, DU-145; conditions: read-out: AR negative DU-145 GI50
Procedure: (§1) Prostate Cancer Cell Line Growth Inhibition Assays: The PC-3, DU-145, LNCaP, C4-2, and 22Rv1 PC cell line growth inhibition assays have been described previously (Fancher et al., Assay Drug Dev Technol. 2016, 14:453-477; Fancher et al., Assay Drug Dev Technol. 2019, 17:364-386). On day 1, each PC cell line was harvested, counted, and seeded into two 384-well assay plates, a time zero (T0) and a time 72 h (T72) plate. […] On day 2, 25 μL of the CellTiter-Glo® (CTG) (Promega Corporation, Madison, WI) detection reagent was dispensed into the wells of the TO assay plate using a Matrix electronic multichannel pipette, and the RLUs were captured on the SpectraMax® M5e (Molecular Devices LLC, Sunnyvale, CA) microtiter plate reader. […] On day 5, 25 μL of the CTG detection reagent was dispensed into the wells of the T72 assay plate using a Matrix electronic multichannel pipette, and the RLU's were captured on the SpectraMax® M5e microtiter plate reader platform.
(§2) For the 96-well AR-LBD H^3-DHT radioligand binding assay, eight minimum and maximum plate control wells were utilized to normalize the data. […] To normalize the 72 h compound exposure PC growth inhibition data, the signals from the compound treated wells were processed and expressed as % of the T72 DMSO plate controls. […]

PC-3 cells = experiment: Prostate cancer cell line growth inhibition assay, PC-3; conditions: read-out: AR negative PC-3 GI50
Procedure: as §1, §2

[1] = tested on: AR-V7 directed transcriptional activation in PC3-AR-V7-EGFP cells; experiment: AR-V7 driven PSA6.1-Luc and UBE2C-Luc reporter assays, results stated jointly; conditions: both reporters; read-out: IC50s, both PSA6-6.1-Luc and UBE2C-Luc reporters in PC3-AR-V7-EGFP cells (potency range in words)
Procedure: PSA6.1 Promoter Driven Luciferase Reporter Assay in PC3-AR-V7-GFP Cells: PC3-AR-V7-GFP cells were bulk transfected with a mixture of FuGENE® HD transfection agent and the PSA-6.1-Luc reporter plasmid (20 ng/well) combined at a 3:1 (μL:μg) ratio in Opti-MEM™ medium (Gibco, Gaithersburg, MD) that had been incubated for 25 min at RT before being added to PC3-AR-V7-GFP cells that were suspended in RPMI 1640 (Gibco) media containing 1% L-glutamine (Invitrogen), and 10% fetal bovine serum (Gemini Bio-products). Bulk transfected PC3-AR-V7-GFP cells were seeded into white opaque 384-well assay plates (Greiner Bio-one, #781080) at 3,000 cells per well in a volume of 40 μL and incubated at 5% CO2, 37° C., and 95% humidity for 24 h. After 24 h, 5 μL of compounds were transferred to assay wells and the plates were returned to the incubator for an additional 24 h before 25 μL of BrightGlo® luciferase reagent (Promega) was added to the wells and the RLU's were captured on a SpectraMax® M5e plate reader (Molecular Devices LLC) as described previously (Fancher et al., Assay Drug Dev Technol. 2019, 17:364-386).
UBE2C Promoter Driven Luciferase Reporter Assay in PC3-AR-V7-GFP Cells: The pGL4.28-UBE2C 20bpX3 luciferase reporter plasmid (Xu et al., Cancer Res 2015, 75:3663-71) was provided by Dr. Yan Dong from Tulane University. […]

[2] = Cytotoxicity counter screens to the reporter assays; conditions: counter screens to M2H, PSA-Luc, AR-V7 reporters, read-out: IC50 in cytotoxicity counter screen

| GI50 (DU-145 cells; 72 h, listed as 1) | GI50 (PC-3 cells; 72 h, listed as 1) | IC50 [1] | GI50 (DU-145 cells; Homo sapiens, DU-145, 72 h) | GI50 (PC-3 cells; Homo sapiens, PC-3, 72 h) | SMILES | IC50 [2] | IC50 at 24 h ([2]; human, PC3-AR-V7-EGFP cells) |
| --- | --- | --- | --- | --- | --- | --- | --- |
| 60.5 µM | 61.1 µM | 10 to 100 µM |  |  | Cc1ccccc1-c1cc(O)c2c(c1)CN(c1nc(C(N)=O)cs1)CCO2 [Compound S1-1] |  |  |
|  |  | 10 to 100 µM |  |  | Cc1nc(N)cc(N2CCOc3c(O)cc(-c4ccccc4C)cc3C2)n1 [Compound S1-2] | 45.6 µM | 45.9 µM |
|  |  |  | 15.9 µM | 28.4 µM | Cc1c(-c2ccccc2F)[nH]c2ccc(CNC(=O)CCc3cn[nH]c3)cc12 [Compound S3-11] |  |  |
